Where a SMILES comes first, the peptide text is derived from it. The star is where a group is joined. Cbz = O=C(OCc1ccccc1)*
Tests used:
ATGL [1] = experiment: ATGL protein quantification via immunoblot in HepG2 cell type; type: cell-based, human
Procedure: HepG2 cell type was cultured in RPMI medium with 10% FBS and 1% Pen/Strep on collagen-coated plates. Lipofectamine RNAiMAX reagent mediated siRNA (100 nM) was delivered to cells at the suspended state for 48 h. Different from HEK cells, it is not necessary to induce LDs via OA treatment in that there exist LDs in the HepG2 cell type at normal culture medium. The inventors treated HepG2 cells with 10 µM PF04620110 (DGAT1 inhibitor, Sigma) & PF-06424439 (DGAT2 inhibitor, Sigma) for 48 hours or with 5 µg/mL BFA (B5936, Sigma) for 6 hours to deplete LDs and intact Golgi in the HepG2 cell type respectively before glucose deprivation. To deprive glucose in the HepG2 cell type, we either added 2-DG at indicated concentrations to the culture medium or refresh cells with RPMI medium containing different glucose concentrations prepared from the same RPMI medium (Gibco, 11879020).
Adipose depots, liver pieces, differentiated iBAs, HepG2, HEK293T and HEK293-AAV cell types were homogenized in RIPA buffer (50 mM Tris-HCl pH 7.4, 150 mM NaCl, 2 mM EDTA, 1.0% Triton X100, 0.5% sodium deoxycholate) with protease inhibitors (Complete, Roche) and phosphatase inhibitors (Halt phosphatase inhibitor cocktail, ThermoFisher). […] The concentration of WCE was determined by DC Protein Assay (Bio-Rad). […]

wild-type mice = experiment: Glucose deprivation by 2-DG administration in mice; type: in vivo
Procedure: All animal experiments were permitted by the Veterinary office of the Canton of Zurich. Both female and male mice were used in the experiments, and they were housed 2-5 littermates per cage in ventilated cages at standard housing conditions (22°C, 12 h reversed light/dark cycle, dark phase starting at 7 am) with normal chow diet (18% proteins, 4.5% fibers, 4.5% fat, 6.3% ashes, Provimi Kliba SA) and water. Health status of all the mouse lines were monitored regularly based on FELASA guidelines. 8-10 weeks old C57BL/6N male mice were fasted for 24 h or injected with 2-DG (2 g/kg BW) to induce glucose deprivation for different durations. Female ROSA26-LSL-spCas9 mice (The Jackson Lab strain) were intravenously injected with AAV8-U6-Pi4kb gRNAs-TBG-Cre, AAV8-U6-Sacm1l gRNAs-TBG-Cre, AAV8-U6-Cu/7 gRNAs-TBG-Cre and AAV8-U6-Fbxw8 gRNAs-TBG-Cre virus pools to express six gRNAs targeting individual gene and CAS9 in the liver at a dose of 3×10^11 genome copies/mouse. Two weeks later, livers were harvested for protein and RNA extraction after 6 hours fasting. To determine liver TG levels under NCD feeding condition, 4 weeks after AAV administration livers were harvested after 6 hours fasting. Also 4 weeks after AAV administration, the liver specific Cul7&Fbxw8 double knockout mice were injected with 2-DG (2 g/kg BW) to induce 1 hour glucose deprivation prior to liver harvesting for protein extraction.
Adipose depots, liver pieces, differentiated iBAs, HepG2, HEK293T and HEK293-AAV cell types were homogenized in RIPA buffer (50 mM Tris-HCl pH 7.4, 150 mM NaCl, 2 mM EDTA, 1.0% Triton X100, 0.5% sodium deoxycholate) with protease inhibitors (Complete, Roche) and phosphatase inhibitors (Halt phosphatase inhibitor cocktail, ThermoFisher). The homogenates were centrifuged at 12,000×g for 10 min at 4°C to remove debris and collect whole cell extract (WCE). The concentration of WCE was determined by DC Protein Assay (Bio-Rad). After boiling the sample with Lämmeli buffer at 95°C for 5 min, equal amount of proteins was loaded and separated on 12% SDS-PAGE. The proteins were transferred to nitrocellulose membrane and blotted by ATGL (1:1000, Cell Signaling), CGI-58 (1:1000, Proteintech), phospho-HSL(Ser660) (1:1000, Cell Signaling), PLIN1 (1:1000, Cell Signaling), HSL (1:1000, Cell Signaling), γ-tubulin (1:10000, Sigma), FLAG (1:10000, Sigma; 1:1000, Cell Signaling), MGL (1:1000, Abcam), HA (1:1000, Cell signaling), FBXW8 (1:100, Santa Cruz; 1:1000, Sigma), CUL7 (1:100, Santa Cruz), HSP90 (1:1000, Cell Signaling), K48 polyubiquitin (1:1000, Cell signaling), PI4KB (1:1000, Sigma), SACM1L (1:1000, Sigma), AKT1 (1:1000, Cell Signaling), phospho-AKT1(Ser473) (1:1000, Cell Signaling), TGN46 (1:1000, Abcam), MAOA (1:1000, Abcam), PLIN2 (1:1000, Abcam), PMP70 (1:10000, Sigma), Calnexin (1:1000, Cell Signaling), ARF1 (1:1000, Invitrogen), GAPDH (1:1000, Cell Signaling), RAB7 (1:1000, Cell Signaling), alpha 1 Sodium Potassium ATPase (1:1000, Abcam), Cleaved Caspase-3 (1:1000, Cell Signaling), phospho-AMPKα (Thr172) (1:1000, Cell Signaling), AMPKα (1:1000, Cell Signaling) and GM130 (1:1000, Proteintech). The primay antibody signal was visualized by HRP-conjugated secondary antibodies (1:5000, Millipore) and the ImageQuant system (GE Healthcare Life Sciences).
For mouse insulin measurement, plasma was collected at different timepoints after 2-DG administration in wild type mice. 5 µl plasma sample was used to determine insulin levels via Ultra-sensitive mouse insulin ELISA kit (Crystal Chem, Cat# 90080) according to the manufacturer's protocol. The absorbance was measured via Synergy Gen5 Platereader at 450/630 nm. 2 µl plasma sample was used to determine glucose levels via Glucose Assay Kit (Sigma, MAK263) according to the manufacturer's protocol. The absorbance was read at 570 nm in Synergy Gen5 Platereader.
Plasma collected from mice under different conditions was used to determine levels of lipolysis and liver injury. […]

ATGL [2] = experiment: Blocking of proteasome mediated degradation and autophagy, cellular ATGL protein; type: cell-based; conditions: proteasome blocked by MG132
[3] = 1 hour after 2-DG administration

For O=CC[C@@H](O)[C@H](O)[C@H](O)CO [2-DG, 2-Deoxy-D-glucose], the ATGL protein abundance (ATGL [1]; HepG2, 2-DG treatment (50 mM), transcript levels unchanged) was “strongly induced”, the “lipolysis (plasma FFA levels)” value (wild-type mice; 2-DG 2 g/kg BW, 1 h, 6 h and 12 h) was “significantly induced” and the “ATGL levels in livers of wild-type mice” value (wild-type mice; 2-DG for 1 hour, no upregulation in Cul7 and Fbxw8 double knockout) was “upregulation”. The “ATGL protein levels in the liver and iBAT” value (wild-type mice; 1 hour after 2-DG) was “increased”, the “HSL phosphorylation in white adipose tissues” value (wild-type mice; [3]) was “upregulation” and the plasma insulin levels (wild-type mice; [3]) was “reduction”. For the same compound, the “ATGL protein levels in the liver, iBAT, iWAT and gWAT” value (wild-type mice; longer glucose deprivation (6 h, 12 h after 2-DG)) was “further accumulation”.

For C[C@H]1CCC/C=C/[C@@H]2C[C@H](O)C[C@H]2[C@H](O)/C=C/C(=O)O1 [BFA, Brefeldin A], the “intracellular ATGL levels upon glucose deprivation” value (ATGL [1]; HepG2 after treatment with BFA (5 µg/mL, 6 hours)) was “failed to upregulate”.

For CC(C)C[C@@H](C=O)NC(=O)[C@H](CC(C)C)NC(=O)[C@H](CC(C)C)NC(=O)OCc1ccccc1 [MG132] (Cbz-Leu-Leu-Leu-aldehyde), the “cellular ATGL protein” value (ATGL [2]) was “accumulation”.

From patent EP4623911A1, “PI4KB INHIBITORS FOR THE TREATMENT OF FATTY LIVER DISEASE” (ETH Zurich, priority 2024, dated 2025)
